What was measured:
Type in all cases: physicochemical
[1] = Solubility in water at various pH-values; conditions: for calculated concentration charged: soluble
Experimental: The solubilities in water of 6-(4-(tert-butyl)phenoxy)pyridin-3-amine (formula (Ia)) and the monohydrochloride salt thereof, i.e. 6-(4-(tert-butyl)phenoxy)pyridin-3-amine monohydrochloride, were assessed at various pH-values according to Tables 3 and 4. The solubility in water of 6-(4-(tert-butyl)phenoxy)pyridin-3-amine (formula (Ia)) according to Table 3 was assayed as follows: Free base 500 mg were charged into 14 mL of acidic media at pH=2, 4, at neutral pH=7 and basic pH=10 to afford suspensions within calculated concentration of appr. 35 mg/mL. The solubility in water of 6-(4-(tert-butyl)phenoxy)pyridin-3-amine monohydrochloride according to Table 4 was assayed as follows: HCl salt 100 mg each were charged into acidic media at pH=2 and 4 and neutral media pH=7 to furnish solutions. Most important observation was to that at a neutral solution at pH=7 drops down to pH=1 by charging HCl salt 100 mg.

[2] = Stability study, storage 25° C., 60% rh
Experimental: (§1) For 6-(4-(tert-butyl)phenoxy)pyridin-3-amine monohydrochloride two different types of stability studies were performed including short-term and long-term stability studies, respectively, at 25° C. (RH, 60%), −5° C. and −20° C. for 36 months and an accelerated study at 40° C. (RH, 75%) over 6 months. In terms of analytical determinations six tests were involved including appearance, assay free base mean and purity mean, water, IR and XRPD. Appearance was determined by visual inspection. The product should be a white or off-white powder. Water content was determined according to USP <921> coulometric method. Identification of 6-(4-(tert-butyl)phenoxy)pyridin-3-amine monohydrochloride by IR spectroscopy was done according to USP <197>, comparing the spectrum obtained to that of the reference standard. X-Ray powder diffraction (XRPD) was performed according to USP <941> against the reference XRPD spectrum. Purity and assay of free base was done by HPLC-UV. Two methods were used. Mobile phases in the first method were water and acetonitrile. Mobile phases in the second method were water (0.5 mL of trifluoroacetic acid was added to 1000 mL of water) and acetonitrile (0.4 mL of trifluoroacetic acid was added to 1000 mL of acetonitrile). Equipment and chromatographic conditions for identification and determination of purity and assay of the 6-(4-(tert-butyl)phenoxy)pyridin-3-amine monohydrochloride by HPLC-UV according to the first method and the second method, respectively, are shown in Tables 5 and 6. [table] [table]

[3] = Stability study, storage −20° C.
Experimental: as §1

[4] = 15% acetic acid soln., pH solvent 2, 100 mg in 0.6 ml
[5] = Fluka 33643 (pH = 4), 100 mg in 1.4 ml
[6] = Fluka 33646 (pH = 7), 100 mg in 1.0 ml
[7] = 6 months stability studies, 25° C., 60% rh, 3 mths
[8] = 6 months stability studies, 25° C., 60% rh, 6 mths
[9] = 6 months stability studies, 25° C., 60% rh, Release data
[10] = 36 months stability studies, 25° C. 60% rh, 6 mths
[11] = 36 months stability studies, 25° C. 60% rh, 9 mths
[12] = 36 months stability studies, 25° C. 60% rh, 12 mths
[13] = 36 months stability studies, 25° C. 60% rh, 18 mths
[14] = 36 months stability studies, 25° C. 60% rh, 24 mths
[15] = 6 months stability studies, 3 mths
[16] = 6 months stability studies, 6 mths
[17] = 6 months stability studies, Release data
[18] = 36 months stability studies, 6 mths
[19] = 36 months stability studies, 9 mths
[20] = 36 months stability studies, 12 mths
[21] = 36 months stability studies, 18 mths
[22] = 36 months stability studies, 24 mths

With CC(C)(C)c1ccc(Oc2ccc(N)cn2)cc1.Cl [6-(4-(tert-butyl)phenoxy)pyridin-3-amine monohydrochloride] the pH solution [1, 4] was 0, the soluble ([1]; 15% acetic acid soln., pH solvent 2, 100 mg in 0.6 ml, conc. 166.66 mg/mL) was “yes” and the calculated concentration charged [1, 4] was 166.66 mg/mL. For the same compound, the pH solution [1, 5] was 1, the soluble ([1]; Fluka 33643 (pH = 4), 100 mg in 1.4 ml, conc. 71.43 mg/mL) was “yes” and the calculated concentration charged [1, 5] was 71.43 mg/mL. For the same compound, the pH solution [1, 6] was 1, the soluble ([1]; Fluka 33646 (pH = 7), 100 mg in 1.0 ml, conc. 100.00 mg/mL) was “yes” and the calculated concentration charged [1, 6] was 100.00 mg/mL. The solubility in water ([1]; water, in words) was “well-soluble”, the “Assay free base, mean” value [2, 7] was 88.8 % m/m and the “IR, conforms to reference” value [2, 7] was “complies”. For the same compound, the “Purity, mean” value [2, 7] was 99.5 % area, the Water [2, 7] was 0.01 % m/m and the “Assay free base, mean” value [2, 8] was 87.2 % m/m. For the same compound, the “IR, conforms to reference” value [2, 8] was “complies”, the “Purity, mean” value [2, 8] was 98.8 % area and the Water [2, 8] was 0.01 % m/m. The “Assay free base, mean” value [2, 9] was 87.0 % m/m, the “IR, conforms to reference” value [2, 9] was “complies” and the “Purity, mean” value [2, 9] was 99.2 % area. The Water [2, 9] was 0.02 % m/m, the Water ([2]; 36 months stability studies, 25° C. 60% rh, 3 mths) was 0.01 % m/m and the “Assay free base, mean” value [2, 10] was 88.6 % m/m. For the same compound, the “Purity, mean” value [2, 10] was 100.0 % area, the Water [2, 10] was 0.01 % m/m and the “Assay free base, mean” value [2, 11] was 88.0 % m/m. The “Purity, mean” value [2, 11] was 100.0 % area, the Water [2, 11] was 0.02 % m/m and the “Assay free base, mean” value [2, 12] was 86.9 % m/m. The “Purity, mean” value [2, 12] was 100.0 % area, the Water [2, 12] was 0.02 % m/m and the “Assay free base, mean” value [2, 13] was 87.7 % m/m. The “Purity, mean” value [2, 13] was 100.0 % area, the Water [2, 13] was 0.02 % m/m and the “Assay free base, mean” value [2, 14] was 87.6 % m/m. The Water [2, 14] was 0.02 % m/m, the “Purity, mean” value ([2]; 36 months stability studies, 25° C. 60% rh, 24 mths, monohydrochloride) was 100 % area and the Water ([2]; 36 months stability studies, 25° C. 60% rh, Release data) was 0.02 % m/m. For the same compound, the “Assay free base, mean” value [3, 15] was 86.1 % m/m, the “IR, conforms to reference” value [3, 15] was “complies” and the “Purity, mean” value [3, 15] was 99 % area. The Water [3, 15] was 0.02 % m/m, the “Assay free base, mean” value [3, 16] was 87.3 % m/m and the “IR, conforms to reference” value [3, 16] was “complies”. For the same compound, the “Purity, mean” value [3, 16] was 99 % area, the Water [3, 16] was 0.02 % m/m and the “Assay free base, mean” value [3, 17] was 89.4 % m/m. For the same compound, the “IR, conforms to reference” value [3, 17] was “complies”, the “Purity, mean” value [3, 17] was 100 % area and the Water [3, 17] was 0.01 % m/m. For the same compound, the Water ([3]; 36 months stability studies, 3 mths) was 0.02 % m/m, the “Assay free base, mean” value [3, 18] was 87.4 % m/m and the “Purity, mean” value [3, 18] was 100.0 % area. The Water [3, 18] was 0.02 % m/m, the “Assay free base, mean” value [3, 19] was 88.6 % m/m and the “Purity, mean” value [3, 19] was 100.0 % area. The Water [3, 19] was 0.03 % m/m, the “Assay free base, mean” value [3, 20] was 87.5 % m/m and the “Purity, mean” value [3, 20] was 100.0 % area. For the same compound, the Water [3, 20] was 0.02 % m/m, the “Assay free base, mean” value [3, 21] was 87.4 % m/m and the “Purity, mean” value [3, 21] was 100.0 % area. The Water [3, 21] was 0.01 % m/m, the “Assay free base, mean” value [3, 22] was 87.4 % m/m and the “Purity, mean” value [3, 22] was 100.0 % area. The Water [3, 22] was 0.02 % m/m and the Water ([3]; 36 months stability studies, Release data) was 0.01 % m/m.

Reference: patent US11472771B2, “Process for making amino diaryl ethers and amino diaryl ethers hydrochloride salts” (CELLESTIA BIOTECH AG, priority 2018, dated 2022)
